The source of these data is patent publication US20150004134A1, “TREATMENT OF CANCER WITH HETEROCYCLIC INHIBITORS OF GLUTAMINASE” (Calithera Biosciences, Inc., priority 2012, published 2015).

The assay relates to P493-6 (myc "on") cells. Kind of assay: Cell Proliferation Assay. The assay is classed as cell-based. To be noted: P493-6, 72 h, read-out: Cell prolif P493 72 h IC50, P493 cells, 72 h. In short, it runs like this: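 Read-out: either Cell Titer Glo or Guava Viacount flow analysis after 72 h compound treatment of myc-on P493-6 cells (10,000/well, RPMI with 10% FBS) at 37 °C. DMSO held at 0.5% final.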
For `COc1cccc(CC(=O)Nc2nnc(CCCCc3nnc(NC(=O)Cc4cccc(OC)c4OC)s3)s2)c1OC` [Compound 260], the IC50 is 84 nM.

Turning to `CC(C(=O)Nc1nnc(CCSCCc2nnc(NC(=O)C(C)c3ccccc3Cl)s2)s1)c1ccccc1Cl` (stereo not shown) [Compound 261], the IC50 turned out to be 2600 nM. Next, `Cc1ccccc1C(C)C(=O)Nc1nnc(CCSCCc2nnc(NC(=O)C(C)c3ccccc3C)s2)s1` (stereo not shown) [Compound 262]: 3100 nM; `COc1ccccc1C(C)C(=O)Nc1nnc(CCSCCc2nnc(NC(=O)C(C)c3ccccc3OC)s2)s1` (stereo not shown) [Compound 263]: 3900 nM; `COc1ccccc1CC(=O)Nc1nnc(CCCCc2nnc(NC(=O)Cc3ccccc3OC)s2)s1` [Compound 264]: 10 nM.

As for `COc1ccc(OC)c(CC(=O)Nc2nnc(CCCc3nnc(NC(=O)Cc4cc(OC)ccc4OC)s3)s2)c1` [Compound 265], the IC50 was determined as 310 nM. Next, `CC(=O)NCC(C(=O)Nc1nnc(CCCCc2nnc(NC(=O)C(CNC(C)=O)c3ccccc3)s2)s1)c1ccccc1` (stereo not shown) [Compound 266]: over 50000 nM; `O=C(Cc1cccc(OCCN2CCOCC2)c1)Nc1nnc(CCSCc2nnc(NC(=O)Cc3cccc(OCCN4CCOCC4)c3)s2)s1` [Compound 267]: 640 nM.

For `O=C(Cc1ccc2ncccc2c1)Nc1nnc(CCSCCc2nnc(NC(=O)Cc3ccc4ncccc4c3)s2)s1` [Compound 268], the IC50 worked out at 5400 nM. Under `O=C(Cc1ccc2ncccc2c1)Nc1nnc(CCCCc2nnc(NC(=O)Cc3ccc4ncccc4c3)s2)s1` [Compound 269] stands 520 nM. As for `O=C(Cc1cccc(Br)c1)Nc1nnc(CCSCCc2nnc(NC(=O)Cc3cccc(Br)c3)s2)s1` [Compound 270], the IC50 amounted to 850 nM. Next, `COc1ccc(OC)c(CC(=O)Nc2nnc(CCCCc3nnc(NC(=O)Cc4ccccc4)s3)s2)c1` [Compound 271]: 630 nM; `O=C(Cc1cccc(F)c1)Nc1nnc(CCCCc2nnc(NC(=O)Cc3cccc(F)c3)s2)s1` [Compound 273]: 70 nM; `CC(C(=O)Nc1nnc(CCCCc2nnc(NC(=O)C(C)c3ccccc3Cl)s2)s1)c1ccccc1Cl` (stereo not shown) [Compound 274]: 680 nM. Regarding `CC(C)(C)OC(=O)N1CCN(Cc2cccc(CC(=O)Nc3nnc(CCSCc4nnc(NC(=O)Cc5cccc(CN6CCN(C(=O)OC(C)(C)C)CC6)c5)s4)s3)c2)CC1` [Compound 275], the IC50 is 340 nM. Next, `O=C(Nc1nnc(CCCCc2nnc(NC(=O)C(O)(CO)c3ccccc3)s2)s1)C(O)(CO)c1ccccc1` (stereo not shown) [Compound 278]: 160 nM; `CC1(C)OCC(C(=O)Nc2nnc(CCCCc3nnc(NC(=O)Cc4ccccc4)s3)s2)(c2ccccc2)O1` (stereo not shown) [Compound 279]: 7000 nM; `O=C(Cc1ccccc1)Nc1nnc(CCCCc2nnc(NC(=O)C(O)(CO)c3ccccc3)s2)s1` (stereo not shown) [Compound 280]: 230 nM. Next, `O=C(Cc1ccccc1Br)Nc1nnc(CCCCc2nnc(NC(=O)Cc3ccccc3Br)s2)s1` [Compound 282]: 370 nM; `O=C(Cc1ccccc1Br)Nc1nnc(CCSCCc2nnc(NC(=O)Cc3ccccc3Br)s2)s1` [Compound 283]: 740 nM.

Consider `O=C(Cc1cccc(-n2cccn2)c1)Nc1nnc(CCCCc2nnc(NC(=O)Cc3cccc(-n4cccn4)c3)s2)s1` [Compound 285], for which the IC50 came to 140 nM. Next, `O=C(Cc1cccc(CN2CCNCC2)c1)Nc1nnc(CCCCc2nnc(NC(=O)Cc3cccc(CN4CCNCC4)c3)s2)s1` [Compound 286]: 6400 nM; `O=C(Nc1nnc(CCCCc2nnc(NC(=O)C(O)c3ccccc3Br)s2)s1)C(O)c1ccccc1Br` (stereo not shown) [Compound 287]: 1300 nM. Under `O=C(Nc1nnc(CCCCc2nnc(NC(=O)C(O)c3cccc(Br)c3)s2)s1)C(O)c1cccc(Br)c1` (stereo not shown) [Compound 288] stands 28 nM; under `O=C(Cc1ccccc1)Nc1nnc(CCCCc2nnc(NC(=O)[C@H]3CCCC[C@@H]3C(=O)c3ccccc3)s2)s1` [Compound 290], 790 nM; under `CC(C)[C@H](N)C(=O)OCC(C(=O)Nc1nnc(CCCCc2nnc(NC(=O)C(COC(=O)[C@@H](N)C(C)C)c3ccccc3)s2)s1)c1ccccc1` (stereo partly shown) [Compound 291], 1800 nM.

`O=C(Cc1ccccc1F)Nc1nnc(CCCCc2nnc(NC(=O)Cc3ccccc3F)s2)s1` [Compound 292]: the IC50 stood at 12 nM. Under `O=C(Cc1c(F)cccc1F)Nc1nnc(CCCCc2nnc(NC(=O)Cc3c(F)cccc3F)s2)s1` [Compound 293] stands 40 nM. Take `O=C(Cc1ccccc1F)Nc1nnc(CCSCCc2nnc(NC(=O)Cc3ccccc3F)s2)s1` [Compound 294]: the IC50 amounted to 1100 nM. Under `Cc1nccn1Cc1cccc(CC(=O)Nc2nnc(CCCCc3nnc(NC(=O)Cc4cccc(Cn5ccnc5C)c4)s3)s2)c1` [Compound 296] stands 170 nM.

In the case of `O=C(Cc1c(F)cccc1F)Nc1nnc(CCSCCc2nnc(NC(=O)Cc3c(F)cccc3F)s2)s1` [Compound 298], the IC50 came out at 5100 nM.

Take `CCOc1ccccc1CC(=O)Nc1nnc(CCCCc2nnc(NC(=O)Cc3ccccc3OCC)s2)s1` [Compound 300]: the IC50 turned out to be 160 nM. Next, `O=C(OCC(C(=O)Nc1nnc(CCCCc2nnc(NC(=O)C(COC(=O)C3CCN(C(=O)OCc4ccccc4)CC3)c3ccccc3)s2)s1)c1ccccc1)C1CCN(C(=O)OCc2ccccc2)CC1` (stereo not shown) [Compound 301]: 230 nM; `O=C(OCC(C(=O)Nc1nnc(CCCCc2nnc(NC(=O)C(COC(=O)C3CCNCC3)c3ccccc3)s2)s1)c1ccccc1)C1CCNCC1` (stereo not shown) [Compound 302]: 870 nM.

Turning to `O=C(Cc1ccccc1)Nc1nnc(CCCCc2nnc(NC(=O)[C@@H]3CCCC[C@H]3C(O)c3ccccc3)s2)s1` (stereo partly shown) [Compound 304], the IC50 was found to be 4900 nM. Next, `O=C(Cc1ccccc1)Nc1nnc(CCCCc2nnc(NC(=O)Cc3ccccc3)o2)o1` [Compound 305]: 102000 nM. On to `O=C(Nc1nnc(CCCCc2nnc(NC(=O)C(O)c3cccc(Cl)c3)s2)s1)C(O)c1cccc(Cl)c1` (stereo not shown) [Compound 306], for which the IC50 was 66 nM. Under `O=C(Cc1ccccn1)Nc1nnc(CCSCCc2nnc(NC(=O)Cc3ccccn3)s2)s1` [Compound 308] stands 1200 nM; under `O=C(Cc1ccccc1)Nc1nnc(CCCCc2nnc(NC(=O)Cc3cccnc3)s2)s1` [Compound 309], 180 nM; under `O=C(Cc1cccnc1)Nc1nnc(CCCCc2nnc(NC(=O)Cc3cccnc3)s2)s1` [Compound 311], 22000 nM.

Turning to `O=C(Cc1ccccc1)Nc1ccc(CCCCc2nnc(NC(=O)C(O)c3ccccc3)s2)nn1` (stereo not shown) [Compound 315], the IC50 came out at 35 nM. Next, `O=C(Cc1ccccc1)Nc1nnc(CCCCc2nnc(NC(=O)C(CO)c3ccccc3)s2)s1` (stereo not shown) [Compound 316]: 75 nM; `COc1cccc(C(O)C(=O)Nc2nnc(CCCCc3ccc(NC(=O)Cc4ccccc4)nn3)s2)c1` (stereo not shown) [Compound 317]: 10 nM; `COc1cc(C(O)C(=O)Nc2nnc(CCCCc3nnc(NC(=O)C(O)c4ccc(O)c(OC)c4)s3)s2)ccc1O` (stereo not shown) [Compound 319]: 10000 nM.

As to `COc1ccc(C(O)C(=O)Nc2nnc(CCCCc3nnc(NC(=O)C(O)c4ccc(OC)cc4)s3)s2)cc1` (stereo not shown) [Compound 320], the IC50 turned out to be 190 nM.

Turning to `C[C@H](O)C(=O)Nc1nnc(CCCCc2nnc(NC(=O)Cc3ccccc3)s2)s1` [Compound 321], the IC50 amounted to 2600 nM.

A word on the IC50: it is the concentration that gives 50% inhibition.
